Measurements reported in ChEMBL document CHEMBL5634117 (Eur J Med Chem, 2023).
The source made the active and inactive calls. The calls are words filed in the database; no cut-off is given here.

Experiments:
OVCAR-3 = assay: Growth inhibition of human OVCAR-3 cells assessed as reduction in cell viability measured after 48 hrs by SRB assay; type: functional
COLO 205 = assay: Growth inhibition of human COLO 205 cells assessed as reduction in cell viability measured after 48 hrs by SRB assay; type: functional
MDA-MB-435 = assay: Growth inhibition of human MDA-MB-435 cells assessed as reduction in cell viability measured after 48 hrs by SRB assay; type: functional
PC-3 = assay: Growth inhibition of human PC-3 cells assessed as reduction in cell viability measured after 48 hrs by SRB assay; type: functional
K562 [1] = assay: Induction of autophagy in human K562 cells assessed as increase in beclin-1 level at 2.56 uM measured after 24 hrs by Western blotting analysis; type: functional, cell-based
HOP-92 = assay: Growth inhibition of human HOP-92 cells assessed as reduction in cell viability measured after 48 hrs by SRB assay; type: functional
SK-MEL-5 = assay: Growth inhibition of human SK-MEL-5 cells assessed as reduction in cell viability measured after 48 hrs by SRB assay; type: functional
K562 [2] = assay: Induction of apoptosis in human K562 cells assessed as early apoptotic cells at 1.28 uM incubated for 24 hrs by annexinV and propidium iodide staining based flow cytometry analysis (reference value: 1.17%); type: functional
SK-MEL-28 = assay: Growth inhibition of human SK-MEL-28 cells assessed as reduction in cell viability measured after 48 hrs by SRB assay; type: functional
[3] = biological target: Mitogen-activated protein kinase 8 (Homo sapiens, UniProt P45983); assay: Inhibition of human JNK1 in presence of ATP
Chain of Mitogen-activated protein kinase 8 (P45983 whole entry): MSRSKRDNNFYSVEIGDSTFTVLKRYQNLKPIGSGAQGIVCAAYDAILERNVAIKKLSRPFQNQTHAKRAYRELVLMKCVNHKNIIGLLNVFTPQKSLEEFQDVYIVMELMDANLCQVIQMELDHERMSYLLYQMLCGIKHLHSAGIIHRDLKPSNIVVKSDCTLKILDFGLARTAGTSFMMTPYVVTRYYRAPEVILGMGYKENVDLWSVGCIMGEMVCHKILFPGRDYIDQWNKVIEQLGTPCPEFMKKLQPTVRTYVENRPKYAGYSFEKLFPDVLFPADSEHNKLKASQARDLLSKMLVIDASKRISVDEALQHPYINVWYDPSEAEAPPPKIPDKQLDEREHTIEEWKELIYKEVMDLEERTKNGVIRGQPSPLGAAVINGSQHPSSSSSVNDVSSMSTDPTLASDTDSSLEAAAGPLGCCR

[4] = Cytotoxicity against African green monkey Vero cells assessed as decrease in population of viable cells at 0 to 10 uM measured after 48 hrs by SRB assay relative to control; type: toxicity, cell-based; details: chlorocebus sabaeus, dose 0-10 µM
U-251 = assay: Growth inhibition of human U-251 cells assessed as reduction in cell viability measured after 48 hrs by SRB assay; type: functional
K562 [5] = assay: Induction of cell cycle arrest in human K562 cells assessed as accumulation of cells at SubG1 phase at 1.28 uM measured after 24 hrs by PI staining based flow cytometry analysis (reference value: 2.21%); type: functional
IGROV-1 = assay: Growth inhibition of human IGROV-1 cells assessed as reduction in cell viability measured after 48 hrs by SRB assay; type: functional
UACC-257 = assay: Growth inhibition of human UACC-257 cells assessed as reduction in cell viability measured after 48 hrs by SRB assay; type: functional
K562 [6] = assay: Induction of apoptosis in human K562 cells assessed as early apoptotic cells at 2.56 uM incubated for 24 hrs by annexinV and propidium iodide staining based flow cytometry analysis (reference value: 1.17%); type: functional
EKVX = assay: Growth inhibition of human EKVX cells assessed as reduction in cell viability measured after 48 hrs by SRB assay; type: functional
[7] = Cytotoxicity against African green monkey Vero cells assessed as decrease in number of viable cells at 30 uM measured after 48 hrs by SRB assay relative to control; type: toxicity, cell-based; details: chlorocebus sabaeus
K562 [8] = assay: Induction of apoptosis in human K562 cells assessed as late apoptotic cells at 0.64 uM incubated for 24 hrs by annexinV and propidium iodide staining based flow cytometry analysis (reference value: 0.82%); type: functional
K562 [9] = assay: Induction of cell cycle arrest in human K562 cells assessed as accumulation of cells at S phase at 0.64 uM measured after 24 hrs by PI staining based flow cytometry analysis (reference value: 24.75%); type: functional
SF-539 = assay: Growth inhibition of human SF-539 cells assessed as reduction in cell viability measured after 48 hrs by SRB assay; type: functional
SK-OV-3 = assay: Growth inhibition of human SK-OV-3 cells assessed as reduction in cell viability measured after 48 hrs by SRB assay; type: functional
NCI-H226 = assay: Growth inhibition of human NCI-H226 cells assessed as reduction in cell viability measured after 48 hrs by SRB assay; type: functional
NCI-H522 = assay: Growth inhibition of human NCI-H522 cells assessed as reduction in cell viability measured after 48 hrs by SRB assay; type: functional
DU-145 = assay: Growth inhibition of human DU-145 cells assessed as reduction in cell viability measured after 48 hrs by SRB assay; type: functional
K562 [10] = assay: Induction of cell cycle arrest in human K562 cells assessed as accumulation of cells at G2/M phase at 0.64 uM measured after 24 hrs by PI staining based flow cytometry analysis (reference value: 29.09%); type: functional
K562 [11] = assay: Induction of cell cycle arrest in human K562 cells assessed as accumulation of cells at SubG1 phase at 1.25 uM measured after 24 hrs by PI staining based flow cytometry analysis (reference value: 3.43%); type: functional
K562 [12] = assay: Induction of cell cycle arrest in human K562 cells assessed as accumulation of cells at S phase at 2.5 uM measured after 24 hrs by PI staining based flow cytometry analysis (reference value: 20.42%); type: functional
K562 [13] = assay: Induction of cell cycle arrest in human K562 cells assessed as accumulation of cells at G0/G1 phase at 1.25 uM measured after 24 hrs by PI staining based flow cytometry analysis (reference value: 46.67%); type: functional
K562 [14] = assay: Induction of apoptosis in human K562 cells assessed as late apoptotic cells at 2.5 uM incubated for 24 hrs by annexinV and propidium iodide staining based flow cytometry analysis (reference value: 1.34%); type: functional
K562 [15] = assay: Induction of cell cycle arrest in human K562 cells assessed as accumulation of cells at SubG1 phase at 0.64 uM measured after 24 hrs by PI staining based flow cytometry analysis (reference value: 2.48%); type: functional
K562 [16] = assay: Induction of cell cycle arrest in human K562 cells assessed as accumulation of cells at S phase at 0.64 uM measured after 24 hrs by PI staining based flow cytometry analysis (reference value: 21.74%); type: functional
K562 [17] = assay: Induction of cell cycle arrest in human K562 cells assessed as accumulation of cells at S phase at 5 uM measured after 24 hrs by PI staining based flow cytometry analysis (reference value: 20.42%); type: functional
K562 [18] = assay: Induction of apoptosis in human K562 cells assessed as late apoptotic cells at 1.25 uM incubated for 24 hrs by annexinV and propidium iodide staining based flow cytometry analysis (reference value: 1.34%); type: functional
K562 [19] = assay: Induction of apoptosis in human K562 cells assessed as early apoptotic cells at 5 uM incubated for 24 hrs by annexinV and propidium iodide staining based flow cytometry analysis (reference value: 0.42%); type: functional
K562 [20] = assay: Induction of cell cycle arrest in human K562 cells assessed as accumulation of cells at G0/G1 phase at 2.56 uM measured after 24 hrs by PI staining based flow cytometry analysis (reference value: 46.71%); type: functional
K562 [21] = assay: Induction of cell cycle arrest in human K562 cells assessed as accumulation of cells at SubG1 phase at 2.5 uM measured after 24 hrs by PI staining based flow cytometry analysis (reference value: 3.43%); type: functional

Structure (SMILES)	GI50 (OVCAR-3)	GI50 (COLO 205)	GI50 (MDA-MB-435)	GI50 (PC-3)	GI50 (HOP-92)	GI50 (SK-MEL-5)	GI50 (SK-MEL-28)	IC50 [3]	GI50 (U-251)	GI50 (IGROV-1)	GI50 (UACC-257)	GI50 (EKVX)	GI50 (SF-539)	GI50 (SK-OV-3)	GI50 (NCI-H226)	GI50 (NCI-H522)	GI50 (DU-145)	other results
CC(C)(C)n1cc(-c2ccnc(NCCCNS(=O)(=O)c3ccc(Cl)cc3)c2)c(-c2cccc(O)c2)n1	1.89 µM	1.66 µM	1.79 µM	1.36 µM	1.49 µM	1.44 µM	1.57 µM	0.0438 µM	1.62 µM	1.88 µM	1.86 µM	2.04 µM	1.65 µM	2.35 µM	2.11 µM	1.92 µM	2.75 µM	Activity (K562 [1]): inactive; Activity (K562 [2]): 1.94%; Activity [4]: 68%; Activity (K562 [5]): 0.23%; Activity (K562 [6]): 2.14%; Activity [7]: 53%; Activity (K562 [8]): 0.48%; Activity (K562 [9]): 30.99%
CC(C)(C)n1cc(-c2ccnc(NCCCNS(=O)(=O)c3ccc(Br)cc3)c2)c(-c2cccc(O)c2)n1	2.15 µM	1.85 µM	1.82 µM	1.6 µM	1.56 µM	1.52 µM	1.79 µM	0.0978 µM	1.65 µM	1.91 µM	2.01 µM	1.95 µM	1.7 µM	2.52 µM	2.31 µM	2.13 µM	2.1 µM	–
CC(C)(C)n1cc(-c2ccnc(NCCCNS(=O)(=O)c3ccc(C(F)(F)F)cc3)c2)c(-c2cccc(O)c2)n1	1.96 µM	1.95 µM	1.81 µM	1.64 µM	1.6 µM	1.6 µM	1.75 µM	0.142 µM	1.71 µM	1.8 µM	2.07 µM	1.82 µM	1.65 µM	2.69 µM	2.35 µM	1.99 µM	1.94 µM	–
O=C1c2ccccc2-c2n[nH]c3cccc1c23	15.3 µM	19.5 µM	12.8 µM	23.3 µM	37.6 µM	14.6 µM	37.5 µM	–	23.1 µM	11.3 µM	29.5 µM	20 µM	32.2 µM	21 µM	22.9 µM	12.2 µM	28.2 µM	Activity (K562 [10]): 48.84%; Activity (K562 [11]): 4.71%; Activity (K562 [12]): 19.27%; Activity (K562 [13]): 34.01%; Activity (K562 [14]): 3.86%; Activity (K562 [15]): 4.68%; Activity (K562 [16]): 18.56%; Activity (K562 [17]): 20.04%; Activity (K562 [18]): 1.47%; Activity (K562 [19]): 1.5%; Activity (K562 [20]): 37.63%; Activity (K562 [21]): 4.35%
CC(C)(C)n1cc(-c2ccnc(NCCCNS(=O)(=O)c3cccc4ccccc34)c2)c(-c2cccc(O)c2)n1	2.06 µM	1.89 µM	1.76 µM	1.85 µM	1.71 µM	1.52 µM	1.67 µM	0.0803 µM	1.73 µM	2.14 µM	2.07 µM	2.13 µM	1.83 µM	2.63 µM	1.97 µM	1.99 µM	2.65 µM	–
